The test system of this test is CT26 mouse colorectal carcinoma. The following applies: one cycle: BGs 4x10^8 at D4, oxaliplatin 6 mg/kg i.p. at D4, D6; harvest D18.

Molecules are shown by their SMILES.

Experimental: Treatment of mice started three days after tumor inoculation and comprised of either one or two cycles of BGs administration combined with either two or four drug administrations, respectively. Furthermore, part of mice was treated with either two or four drug administrations without the extra addition of BGs. Survival and animal behavior were monitored until the section day; animal weights were documented once per week. Tumor presence and burden were assessed at the section day including organ screening and photo documentation.
The mice were inoculated intraperitoneally (in lower left quadrant) with 1×10^5 cells of CT26 mouse colorectal carcinoma cells and randomly distributed into the seven groups (D1).
Three days after tumor inoculation (D4) the first group of animals (Group #1) received 100 μl of 5% glucose solution for injection (solvent) administered intraperitoneally at the same place as used for tumor inoculation.
Mice from Group #2.1 were injected intraperitoneally at D4 and D6 (five days after tumor inoculation) with 6 mg/kg oxaliplatin reconstituted in 100 μl of 5% glucose solution for injection at the same place as used for tumor inoculation. […]

With `O=C1[O][Pt]2([NH][C@@H]3CCCC[C@H]3[NH]2)[O]C1=O` [oxaliplatin], the “tumor burden (weight of collected tumor tissues) versus control” value is given as “tumor mass reduction detected”.
